Holding throughout (assay): NCI-60 cell line screen, 48 h
Assay [1] relates to ACHN.
For assay [2], the system named is COLO 205.
For assay [3], the system named is EKVX.
The test system of assay [4] is HCT-116.
For assay [5], the system named is HCT-15.
Assay [6] deals with HOP-92.
Assay [7] relates to K562.
The subject of assay [8] is MDA-MB-435.
Assay [9] concerns OVCAR-3.
Assay [10] deals with PC-3.
Assay [11] deals with RXF 393.
For assay [12], the system named is SF-268.
Assay [13] deals with SK-MEL-28.
In assay [14] the test system is SK-MEL-2.
In assay [15] the test system is SNB-19.
Assay [16] concerns SW-620.
Assay [17] deals with U-251.
The subject of assay [18] is UACC-257.

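Grown in 96-well plates, cells were treated for 48 hours with each compound at five concentrations. Insufficient inhibition: endpoint recorded as highest concentration tested. GI50: concentration for 50% inhibition of growth.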 Activity calls are given as the source filed them. No stated cut-off is given here; in the data, active = GI50 up to about 1.1 µM and inactive = higher.

`Fc1cc(-c2cc(-c3ccccc3)n[nH]2)c(Cl)cc1Cl`: the GI50 in assay [1] was 6.35 µM (inactive); in assay [2], > 100 µM (inactive); in assay [3], 61.7 µM (inactive); in [4], > 100 µM (inactive); in assay [5] it was over 100 µM; in assay [6] it was > 100 µM (inactive). Also, the GI50 in [7] was 0.492 µM (active); in assay [8], > 100 µM (inactive); in [9], > 100 µM (inactive); in assay [10], > 100 µM (inactive); in assay [11], > 100 µM (inactive); in assay [12], > 100 µM (inactive). Moreover, the GI50 in assay [13] was > 100 µM (inactive); in [14] it was > 100 µM (inactive); in assay [15] it was > 100 µM (inactive); in [16], > 100 µM (inactive); in [17] it was 51.5 µM (inactive); in [18] it was > 100 µM (inactive).
Consider `CCC(c1ccc(OC)cc1)C1NC(=S)NC1=O` (stereo not given), for which the GI50 in assay [1] was > 50 µM (inactive); in assay [2], > 50 µM (inactive); in [3] it was 34.2 µM (inactive); in assay [4], > 50 µM (inactive); in assay [5] it was over 50 µM; in [6], > 50 µM (inactive). The GI50 was 17.5 µM (inactive) in assay [7]; > 50 µM (inactive) in [8]; > 50 µM (inactive) in assay [9]; > 50 µM (inactive) in [10]; > 50 µM (inactive) in assay [11]; > 50 µM (inactive) in assay [12]. In addition, the GI50 in assay [13], in assay [14], in assay [15], in [16], in assay [17] and in [18] was > 50 µM (inactive) throughout.
On to `COc1ccc(C(OC(C)=O)C2C(=C(C#N)C#N)c3ccccc3C2=C(C#N)C#N)cc1` (stereo not given), for which the GI50 in assay [1] was 36.4 µM (inactive); in assay [3] it was 39.4 µM (inactive); in [4], 35.1 µM (inactive); in assay [5], 31.2 µM; in assay [6], 45.1 µM (inactive); in assay [7], 30.1 µM (inactive). Moreover, the GI50 in assay [8] is 36.7 µM (inactive); in [9], 21.6 µM (inactive); in assay [10] it was 21.8 µM (inactive); in [11], 67.9 µM (inactive); in assay [12], 35.6 µM (inactive); in assay [13] it was 67.3 µM (inactive). Further, the GI50 was 27.7 µM (inactive) in [14], 36.8 µM (inactive) in assay [16], 41.9 µM (inactive) in assay [17] and > 100 µM (inactive) in assay [18].
On to `COC(=O)CNC(=O)CCC(C)[C@H]1CCC2C3C(C[C@H](OC(C)=O)[C@@]21C)[C@@]1(C)CCC2(C[C@H]1C[C@H]3OC(C)=O)OOC1(CC[C@]3(C)C4C[C@H](OC(C)=O)[C@@]5(C)C(CC[C@@H]5C(C)CCC(=O)NCC(=O)OC)C4[C@H](OC(C)=O)C[C@@H]3C1)OO2` (stereo not given in full), for which the GI50 in assay [1] was 0.838 µM (active); in [2], 0.875 µM (active); in assay [3] it was 0.993 µM (active); in assay [4], 1.99 µM (inactive); in [5], 1.33 µM; in assay [6] it was 0.942 µM (active). Further, the GI50 in [7] is 1.38 µM (inactive); in assay [8], 2.3 µM (inactive); in assay [9] it was 3.03 µM (inactive); in [10], 1.64 µM (inactive); in assay [11] it was 0.931 µM (active); in assay [12], 2.19 µM (inactive). Besides, the GI50 in [13] is 1.61 µM (inactive); in [14], 0.764 µM (active); in [15], 37.2 µM (inactive); in assay [16], 1.71 µM (inactive); in assay [17], 3.78 µM (inactive); in assay [18], 1.14 µM (inactive).

(Values after ChEMBL document CHEMBL1201862, “PubChem BioAssay data set” (2004).)
